# Laboratory results reported in PMC10099595, “Multimodal 4-arylchromene derivatives with microtubule-destabilizing, anti-angiogenic, and MYB-inhibitory activities” (Cancer Drug Resistance, 2023).
# Where two headings read alike, the source gives them in different places.
# Assays:
# [1] = test system: SW620/Ad300 colorectal cancer cells; set-up: method as in PMID 9187269, PMID 34977876; details: MDR SW620/Ad300 cells; cited from earlier work
# [2] = test system: HCT-116 p53-/- colon carcinoma cells; assay: MTT antiproliferative assay, HCT-116 p53-/-; type: cell-based; details: Homo sapiens, 72 h
# Excerpt: (§1) The following cell lines were used: 518A2 melanoma (Department of Radiotherapy, Medical University of Vienna, Austria)[15], HeLa cervix carcinoma, KBV1^Vbl (ACC-149 cervix carcinoma, MCF7 [ACC-115]) breast carcinoma, U-87 glioblastoma, HT-29 (ACC-299), HCT-116 (ACC-581) and HCT-116p53-/- colon carcinoma, EA.hy926 (ATCC® CRL-2922^TM) endothelial hybrid cells, and HDFa (ATCC® PCS-201-012^TM) adult human dermal fibroblasts. […] Only mycoplasma-free cultures were used.
# MYB = molecular target: T1, MYB (Homo sapiens, UniProt P10242, K503R/K527R); assay: Luciferase-dependent MYB activity assay (HEK-MYB-Luc reporter cells); type: cell-based; details: HEK-293 reporter cells, 16 h; read-out: IC50 inhibition of MYB activity
# T1 construct: expressed in transfected cells; host or cells: HEK-293 (HEK-MYB-Luc reporter cell line)
# T1 sequence (P10242 whole entry K503R/K527R): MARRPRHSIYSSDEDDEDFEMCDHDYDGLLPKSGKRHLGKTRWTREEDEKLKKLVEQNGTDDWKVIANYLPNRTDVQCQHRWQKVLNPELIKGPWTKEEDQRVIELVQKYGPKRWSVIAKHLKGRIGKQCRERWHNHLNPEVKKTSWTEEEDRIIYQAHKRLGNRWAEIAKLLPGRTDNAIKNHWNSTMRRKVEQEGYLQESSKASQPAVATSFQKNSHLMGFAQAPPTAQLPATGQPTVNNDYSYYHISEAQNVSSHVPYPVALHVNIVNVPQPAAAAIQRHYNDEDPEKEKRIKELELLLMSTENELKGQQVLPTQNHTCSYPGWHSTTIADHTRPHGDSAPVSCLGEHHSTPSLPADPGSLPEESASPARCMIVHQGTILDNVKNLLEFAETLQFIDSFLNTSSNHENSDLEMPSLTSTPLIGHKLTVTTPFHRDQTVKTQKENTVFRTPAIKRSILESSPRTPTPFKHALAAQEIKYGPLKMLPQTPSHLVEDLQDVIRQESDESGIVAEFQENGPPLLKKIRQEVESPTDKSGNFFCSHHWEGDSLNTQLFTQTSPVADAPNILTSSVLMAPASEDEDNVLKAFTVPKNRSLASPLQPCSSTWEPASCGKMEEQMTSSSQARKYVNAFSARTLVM
# Protocol: Compounds were tested using the HEK-MYB-Luc reporter cell line, which allows a doxycycline-dependent induction of MYB expression and harbors an MYB-dependent luciferase reporter plasmid, as previously described. After 16 h of substance treatment (0.0001-3 µM), luciferase activities were analyzed as described.
# [3] = test system: HCT-116 colon carcinoma cells; assay: MTT antiproliferative assay, HCT-116; type: cell-based; details: Homo sapiens, 72 h
# Excerpt: as §1
# [4] = test system: HT-29 colon carcinoma cells; assay: MTT antiproliferative assay, HT-29; type: cell-based; details: Homo sapiens, 72 h
# Excerpt: as §1
# [5] = test system: EA.hy926 endothelial hybrid cells; assay: MTT antiproliferative assay, EA.hy926; type: cell-based; details: Homo sapiens, EA.hy 926, 72 h
# Excerpt: as §1
# [6] = test system: MCF-7 breast carcinoma cells; assay: MTT antiproliferative assay, MCF-7; type: cell-based; details: Homo sapiens, MCF7, 72 h
# Excerpt: as §1
# U-87 glioblastoma cells [7] = assay: MTT antiproliferative assay, U87; type: cell-based; details: Homo sapiens, 72 h
# Excerpt: as §1
# [8] = test system: HDFa adult human dermal fibroblasts; assay: MTT cytotoxicity assay, non-malignant HDFa; type: cell-based; details: 72 h, non-malignant cells
# Excerpt: as §1
# [9] = test system: KB-V1^Vbl cervix carcinoma cells; assay: MTT antiproliferative assay, KB-V1Vbl (with or without verapamil); type: cell-based, human; details: for IC50: Homo sapiens, KB-V1/Vbl, 72 h, read-out: IC50 KB-V1^Vbl
# Excerpt: as §1
# 518A2 melanoma cells [10] = assay: MTT antiproliferative assay, 518A2; type: cell-based; details: Homo sapiens, 72 h
# Excerpt: as §1
# [11] = test system: tested cancer and hybrid cell lines; assay: MTT assay, average over all tested cancer and hybrid cell lines; details: for IC50: Homo sapiens; for SI (IC50 HDFa cells/IC50 tumor cell average): selectivity index, HDFa vs tumor cell average
# Protocol: An 3-(4, 5-dimethylthiazol-2-yl)-2, 5-diphenyl tetrazolium bromid (MTT) assay was used for antiproliferative studies. Cancer cells (5 × 10^4 cells/mL, 100 μL/well) were placed in 96-well plates (10 × 10^4 cells/mL for HDFA and U87 cells), and the cells were incubated for 24 h at 5% CO2 and 95% humidity. Then, cells were treated with test compounds (at various concentrations) or solely with DMSO as a negative control for 72 h. Then, 12.5 μL of a 0.5% MTT solution in phosphate-buffered saline (PBS) was added to the cells, followed by incubation for 2 h at 37 °C. After centrifugation of the plates (300 × g, 5 min, 4 °C), the medium was discarded, and 25 μL of DMSO containing 10% SDS and 0.6% acetic acid was added, followed by incubation at 37 °C for at least 1 h. Formazan absorbance at λ = 570 nm was measured using a Tecan infinite F200 microplate reader and corrected for the background (λ = 630 nm). The 50% inhibitory concentration (IC50) values were calculated from dose-response curves (means ± SD, four independent experiments) compared to DMSO-treated control cells, which were set to 100%. GraphPad Prism 9 was used for curve-fitting.
# The selectivity index (SI) was calculated as a measure of selectivity toward cancer cells compared to non-malignant cells.
# [12] = test system: HeLa cervix carcinoma cells; assay: MTT antiproliferative assay, HeLa; type: cell-based; details: Homo sapiens, 72 h
# Excerpt: as §1
# zebrafish larvae = assay: Zebrafish angiogenesis assay (SIV area); type: in vivo; details: 48 h treatment; for effect on SIV growth (angiogenesis): zebrafish larvae 24 hpf, 50-1000 nM
# Protocol: Transgenic zebrafish (Tg(fli1:EGFP, casper mutant) were bred at 28 °C.[16] After fertilization, the eggs were transferred to E3-medium (5 mm NaCl, 0.17 mm KCl, 0.33 mm CaCl, 0.33 mm MgSO4, 0.01% methylene blue, pH 7.2), followed by incubation for 24 h. The chorion was manually removed, and the larvae were treated with test compounds or solvent in six-well plates (30 fish per concentration, 5 mL/well) for 48 h. The fluorescent vasculature was documented with a Leica MZ10F and Zeiss AxioCam MRrc. To quantify the angiogenesis, the sub-intestinal vein (SIV) area was measured using ImageJ and expressed as means ± SD with the control set to 100%. The significance of SIV reduction through substance treatment was assessed using one-way analysis of variance (ANOVA), *P < 0.05; **P < 0.01; ***P < 0.001; ****P < 0.0001, with Dunnett´s multiple comparison test (GraphPad Prism 9).
# 518A2 melanoma cells [13] = assay: Cell-cycle analysis (FACS, propidium iodide); type: cell-based, human; details: 518A2 cells, 25 nM, 24 h
# Protocol: 518A2 melanoma cells (10 × 10^4 cells/mL, 3 mL/well) were cultivated in six-well plates for 24 h. After the treatment with test compounds (10 and 25 nm), C-A4 (10 and 25 nm), or DMSO (vehicle) for an additional 24 h, the cells were trypsinized, centrifuged (300 × g, 5 min, 4 °C), and fixed in 70% EtOH for min. 24 h. For FACS measurement, cells were washed in PBS and stained with propidium iodide solution (50 µg/mL PI, 50 µg/mL RNase A in 0.1% sodium citrate) for 30 min at 37 °C. The DNA content of at least 10000 single cells was determined using a Beckmann Coulter Cytomics FC500 flow cytometer (λex = 488 nm, λem = 570 nm). CXP software (Beckman Coulter) was used to analyze the cells in the cell cycle phases (sub-G1, G1, S, G2/M).
# [14] = test system: microtubule cytoskeleton of 518A2 melanoma cells; assay: Microtubule immunofluorescence staining; type: cell-based, human; details: 518A2 cells, 100 nM
# Protocol: The cells were treated with test compounds and controls (25 and 100 nm) for 0.5, 1, 3, and 6 h and washed with cytoskeletal buffer (100 nm PIPES, 3 nm MgCl2, 138 nm KCl, 2 nm EGTA, 300 nm sucrose, pH 6.8). Fixation and permeabilization were performed for 5 min with 3.7% formaldehyde and 0.2% Triton X-100 in a cytoskeletal buffer. The cells were fixed with cold EtOH for 10 s, rehydrated in PBS, and blocked with 1% bovine serum albumin in PBS for 30 min. The microtubules were stained for 1 h with primary (anti-α-tubulin, mouse monoclonal antibody) and secondary antibodies (goat anti-mouse IgG-AF-546, Invitrogen) and washed with PBS between each treatment. Nuclei were stained using DAPI (1 µg/mL in PBS) for 30 min. The coverslips were placed in Roti®-Mount FluorCare. Microtubules (λex = 488 nm, λem = 507 nm) and nuclei (λex = 358 nm, λem = 461 nm) were documented by confocal microscopy (Leica TCS SP5 confocal microscope, 630 × magnification) and edited with ImageJ.
# [15] = test system: HT-29 colon carcinoma cells; details: cited from earlier work
# [16] = test system: EA.hy926 endothelial hybrid cells; details: cited from earlier work
# [17] = test system: HCT-116 p53-/- colon carcinoma cells; details: cited from earlier work
# [18] = test system: KB-V1^Vbl cervix carcinoma cells; details: without verapamil, cited from earlier work
# 518A2 melanoma cells [19] = details: cited from earlier work
# U-87 glioblastoma cells [20] = details: read-out: IC50 U87, cited from earlier work
# [21] = test system: HCT-116 colon carcinoma cells; details: cited from earlier work
# [22] = test system: MCF-7 breast carcinoma cells; details: cited from earlier work
# [23] = test system: HeLa cervix carcinoma cells; set-up: method as in Köhler et al.[20]; details: positive control; ref Köhler et al.[20]; cited from earlier work
# [24] = read-out: Average IC50 value of the tested cancer and hybrid cell lines (Ø IC50), average of all cell lines of Table 2
# [25] = positive control, ref Köhler et al.[20]
# [26] = read-out: Average IC50 value of the tested cancer and hybrid cell lines (Ø IC50)
SMILES,IC50 [2] [nM],IC50 (MYB) [nM],IC50 [3] [nM],IC50 [4] [nM],melting point [°C],IC50 [5] [nM],IC50 [6] [nM],IC50 (U-87 glioblastoma cells [7]) [nM],IC50 [8] [nM],"IC50 ([9]; MTT, without verapamil) [nM]",IC50 (518A2 melanoma cells [10]) [nM],"IC50 [11, 24] [nM]",IC50 [12] [nM],"IC50 [11, 26] [nM]",other results
CC(=O)O[C@H]1C(=O)[C@@]2(C)[C@H]([C@H](OC(=O)c3ccccc3)[C@]3(O)C[C@H](OC(=O)[C@H](O)[C@@H](NC(=O)c4ccccc4)c4ccccc4)C(C)=C1C3(C)C)[C@]1(OC(C)=O)CO[C@@H]1C[C@@H]2O [paclitaxel],–,–,–,–,–,–,–,–,–,–,–,–,–,–,reduction of effective concentration by treatment with P-gp modulators [1]: 100 fold
"COc1ccc2c(c1)OC(N)=C(C#N)C2c1cc(Cl)c(OC)c(OC)c1 (stereo not drawn) [2A, 2-Amino-3-cyano-4-(3’-chloro-4’, 5’-dimethoxyphenyl)-7-methoxy-4H-chromene]",70 ± 5,2.81 ± 0.3,70 ± 5,300 ± 20,224 to 225,0.4 ± 0.06,40 ± 7,20 ± 3,11500,6 ± 0.5,4 ± 0.3,53,10 ± 0.4,–,SI (IC50 HDFa cells/IC50 tumor cell average) [11]: 219; effect on SIV growth (angiogenesis) (zebrafish larvae): inhibited angiogenesis to an extent comparable to the known inhibitor axitinib
"COc1ccc2c(c1)OC(N)=C(C#N)C2c1cc(I)c(OC)c(I)c1 (stereo not drawn) [2F, 2-Amino-3-cyano-4-(3,5-diiodo-4-methoxyphenyl)-7-methoxy-4H-chromene]",–,2.31 ± 0.4,30 ± 5,60 ± 1,–,20 ± 2,80 ± 4,50 ± 10,> 50000,70 ± 7,20 ± 0.4,43,30 ± 3,–,cells arrested before or during mitosis (G2/M) (518A2 melanoma cells [13]): about 74%; time to change/breakdown of the microtubule cytoskeleton [14]: 1 h; effect on SIV growth (angiogenesis) (zebrafish larvae): no significant change in blood vessel growth; concentration above which toxic effect occurs (zebrafish larvae; zebrafish larvae): above 250 nM
COc1cc(C2C(C#N)=C(N)Oc3c2ccc2ccccc32)cc(OC)c1OC (stereo not drawn) [1B],–,9.07,–,–,–,–,–,–,–,–,–,–,–,53,"IC50 [15, 25]: 300 ± 40 nM; IC50 [16, 25]: 20 ± 1 nM; IC50 [17, 25]: 30 ± 2 nM; IC50 ([18]; ref Köhler et al.[20]): 30 ± 1 nM; IC50 (518A2 melanoma cells [19]; [25]): 30 ± 0.1 nM; IC50 (U-87 glioblastoma cells [20]; [25]): 5 ± 0.2 nM; IC50 [21, 25]: 20 ± 1.9 nM; IC50 [22, 25]: 34 ± 2.5 nM; IC50 [23]: 10 ± 1 nM"
"COc1ccc(/C=C\c2cc(OC)c(OC)c(OC)c2)cc1O [C-A4, combretastatin A4, reference compound]",–,–,–,–,–,–,–,–,–,–,–,–,–,–,G2/M cell-cycle arrest (in words) (518A2 melanoma cells [13]): significant G2/M cell-cycle arrest; time to change of the microtubule structure [14]: 30 min
"COc1ccc2c(c1)OC(N)=C(C#N)C2c1ccccc1Cl (stereo not drawn) [2H, 2-Amino-3-cyano-4-(2’-chlorophenyl)-7-methoxy-4H-chromene]",2800 ± 300,–,3700 ± 400,5300 ± 970,184,3700 ± 300,5100 ± 370,7400 ± 200,–,1900 ± 200,2000 ± 100,> 500,1400 ± 100,–,–
"COc1ccc2c(c1)OC(N)=C(C#N)C2c1cc(Br)c(OC)c(Br)c1 (stereo not drawn) [2E, 2-Amino-3-cyano-4-(3’, 5’-dibromo-4’-methoxyphenyl)-7-methoxy-4H-chromene]",40 ± 3,–,20 ± 2,300 ± 2,–,20 ± 1,80 ± 3,20 ± 2,22200,–,20 ± 2,–,30 ± 3,374,"IC50 [9]: 3200 ± 300 nM; fold lower IC50 values combined with verapamil ([9]; KB-V1^Vbl cells, verapamil 1 µM vs none): 320 fold; SI (IC50 HDFa cells/IC50 tumor cell average) [11]: 59; G2/M cell-cycle arrest (in words) (518A2 melanoma cells [13]): only a slight increase in G2/M phase cells"
"C#CCOc1ccc2c(c1)OC(N)=C(C#N)C2c1cc(Br)c(OC)c(OC)c1 (stereo not drawn) [compound 3, 2-Amino-3-cyano-4-(3’-bromo-4’, 5’-dimethoxyphenyl)-7-propargyloxy-4H-chromene]",90 ± 7,–,300 ± 10,2100 ± 300,206 to 207,80 ± 2,70 ± 4,90 ± 3,–,–,60 ± 3,–,40 ± 2,321,IC50 [9]: 80 ± 3 nM
COc1c(I)cc(C2C(C#N)=C(N)Oc3c2c(=O)oc2ccccc32)cc1I (stereo not drawn) [1C],–,–,–,–,–,–,–,–,–,–,–,> 500,–,–,IC50 ([15]; ref Köhler et al.[13]): 2500 ± 200 nM; IC50 ([16]; ref Köhler et al.[13]): 2800 ± 70 nM; IC50 ([17]; ref Köhler et al.[13]): 2900 ± 60 nM; IC50 ([18]; ref Köhler et al.[13]): 3700 ± 60 nM; IC50 (518A2 melanoma cells [19]; ref Köhler et al.[13]): 1500 ± 100 nM; IC50 (U-87 glioblastoma cells [20]; ref Köhler et al.[13]): 5500 ± 300 nM; IC50 ([21]; ref Köhler et al.[13]): 3100 ± 100 nM; IC50 ([22]; ref Köhler et al.[13]): 3400 ± 200 nM
CC[C@]1(O)C[C@@H]2CN(CCc3c([nH]c4ccccc34)[C@@](C(=O)OC)(c3cc4c(cc3OC)N(C)[C@H]3[C@@](O)(C(=O)OC)[C@H](OC(C)=O)[C@]5(CC)C=CCN6CC[C@]43[C@@H]65)C2)C1 [vinblastine],–,–,–,–,–,–,–,–,–,–,–,–,–,–,reduction of effective concentration by treatment with P-gp modulators [1]: 351 fold
